Reference: patent US20250381157A1, “ANTIMICROBIAL COMPOUNDS” (priority 2022, published 2025)
Like-named read-outs stand apart in the source and are kept apart here.

Experiments:
[1] = system: CAMP gene (encoding human cathelicidin); test: Induction test: ProLL-37-luciferase fusion protein expression in HT-29 CampLuc MN8 reporter cell line; format: cell-based; settings: after 24h; luminescence relative to untreated cells
Protocol: FIG. 2: Induction test. […] Statistical analysis was performed by comparison of each compound-treatment conditions to the corresponding vehicle control using two-way ANOVA with Dunnett post-hoc test. Only significant changes were indicated, ** p<0.01, *** p<0.001, **** p<0.0001.
MN8CampLuc cells were handled according to Nylén et. al. with the following exception when predifferention of cells were performed before induction: […]

[2] = system: Enterotoxigenic Escherichia coli (ETEC) (ATCC ® 35401 ™, H10407); format: in vivo, mouse; settings: for Clinical observation (Mean Score) Hunched Posture / Clinical observation (Mean Score) Rough coat / Clinical observation (Mean Score) hyperpnea: 1 mg/kg PO q12h 9 days, 0=absent 1=present
Protocol: FIG. 3: Schematic protocol for neutropenia mouse model
A schematic of the experimental model is depicted in FIG. 3.
That experiment was performed in the presence of cyclophosphamide, which is known to cause febrile neutropenia due to translocation of bacteria to vital organs.

[3] = Stability SGD, SIF w. Enzymes; format: in vitro ADME
[4] = Dose escalation toxicity and MTD in mouse
in vivo = settings: mouse, po, 7 Days PO once daily MTD - mouse
[5] = Rat pharmacokinetics (IV, PO); format: in vivo; settings: for half-life / bioavailability: in vivo; for bioavailability: oral
Plasma stability Rat = format: in vitro ADME
Caco-2 cells = test: Caco-2 cell study (permeability, efflux); format: in vitro ADME; settings: for Active efflux: Caco-2
From the text: Caco-2 cells are used as a model of the intestinal epithelial barrier.

Plasma stability Mouse = format: in vitro ADME
[6] = 1 mg/kg, PO, twice daily(q12h), 9 days
[7] = individual animals, 1 mg/kg, PO, twice daily(q12h), 9 days
[8] = PO, read-out: Elimination T½ (min) PO - rat
[9] = intravenous, PIV, read-out: Elimination T½ (min) PIV - rat

## C#CCOCC(=O)N(C)Cc1ccc(C(=O)Nc2ccccc2N)cc1 [Compound 2.1, N-(2-aminophenyl)-4-[(methyl{[(prop-2-yn-1-yl)oxy]acetyl}amino)methyl]benzamide]
[1]
  expression of ProLL-37-luciferase fusion protein: induced expression

## CCC(=O)NCCOCC(=O)N(C)Cc1ccc(C(=O)Nc2ccccc2N)cc1 [Compound 2.2, N-(2-aminophenyl)-4-{[N-methyl-2-(2-propanamidoethoxy)acetamido]methyl}benzamide]
[1]
  expression of ProLL-37-luciferase fusion protein: induced expression

## C#CCCCC(=O)Oc1ccc(C(=O)Nc2ccccc2N)cc1 [Compound 2.3, 4-[(2-aminophenyl)carbamoyl]phenyl hex-5-ynoate]
[1]
  expression of ProLL-37-luciferase fusion protein: induced expression

## Nc1ccccc1NC(=O)c1ccc(CNC(=O)OCc2cccnc2)cc1 [Entinostat, Pyridin-3-ylmethyl (4-((2-aminophenyl)-carbamoyl)benzyl)carbamate, reference compound]
[2]; [6]
  Body weights (Final Day) (Mean ± SD): 26.5 ± 1.58
  Log10 CFU/g [Mean ± SD] Blood: BLOQ
  Log10 CFU/g [Mean ± SD] Kidneys: BLOQ
  Log10 CFU/g [Mean ± SD] Liver: BLOQ
  Log10 CFU/g [Mean ± SD] Spleen: BLOQ
[2]; Day (0)
  Clinical observation (Mean Score) Hunched Posture: 0.0
  Clinical observation (Mean Score) Rough coat: 0.0
  Clinical observation (Mean Score) hyperpnea: 0.0
[2]; Day (1)
  Clinical observation (Mean Score) Hunched Posture: 0.0
  Clinical observation (Mean Score) Rough coat: 0.0
  Clinical observation (Mean Score) hyperpnea: 0.0
[2]; Day (2)
  Clinical observation (Mean Score) Hunched Posture: 0.0
  Clinical observation (Mean Score) Rough coat: 0.0
  Clinical observation (Mean Score) hyperpnea: 0.0
[2]; Day (3)
  Clinical observation (Mean Score) Hunched Posture: 0.0
  Clinical observation (Mean Score) Rough coat: 0.0
  Clinical observation (Mean Score) hyperpnea: 0.0
[2]; Day (4)
  Clinical observation (Mean Score) Hunched Posture: 0.0
  Clinical observation (Mean Score) Rough coat: 0.0
  Clinical observation (Mean Score) hyperpnea: 0.0
[2]; Day (5)
  Clinical observation (Mean Score) Hunched Posture: 0.0
  Clinical observation (Mean Score) Rough coat: 0.1
  Clinical observation (Mean Score) hyperpnea: 0.0
[2]; Day (6)
  Clinical observation (Mean Score) Hunched Posture: 0.0
  Clinical observation (Mean Score) Rough coat: 0.1
  Clinical observation (Mean Score) hyperpnea: 0.0
[2]; Day (7)
  Clinical observation (Mean Score) Hunched Posture: 0.0
  Clinical observation (Mean Score) Rough coat: 0.2
  Clinical observation (Mean Score) hyperpnea: 0.0
[2]; Day (−1)
  Clinical observation (Mean Score) Hunched Posture: 0.0
  Clinical observation (Mean Score) Rough coat: 0.0
  Clinical observation (Mean Score) hyperpnea: 0.0
[2]; Day (−2)
  Clinical observation (Mean Score) Hunched Posture: 0.0
  Clinical observation (Mean Score) Rough coat: 0.0
  Clinical observation (Mean Score) hyperpnea: 0.0
[2]; day 7, compound 1 at 50 mg/kg
  Bacteria in treated animals: BLOQ
[2]; [7]
  Kidney -Raw data on Vancomycin (32 μg/ml) plates: BLOQ
  Liver-Raw data on Vancomycin (32 μg/ml) plates: BLOQ
  Spleen -Raw data on Vancomycin (32 μg/ml) plates: BLOQ
[2]; individual animals, day 7 PI, 1 mg/kg, PO, twice daily(q12h), 9 days
  Blood -Raw data on Vancomycin (32 μg/ml) plates - on day 7 PI: BLOQ
[2]; treated groups
  clinical condition of animals: apparently normal

## Nc1ccccc1NC(=O)c1ccc(NC(=O)COCc2cn(CCO)nn2)cc1 [HO53]
[3]
  Stability SGD, SIF w. Enzymes: High
[4]
  Dose Esc. Tox mouse PO: >100 mg/kg
  Dose Esc. Tox mouse iv: >100 mg/kg
In vivo
  MTD at 7 days: > 50 mg/kg
[5]
  C_max IV - rat: 21 µM
  V-d IV - rat: 1.7 L/kg
  bioavailability: 3%
[5]; PO
  C_max PO - rat: 0.09 µM
[5]; [8]
  half-life: 35 min
[5]; [9]
  half-life: 126 min
Plasma stability Rat
  Plasma stability Rat: High
Caco-2 cells
  Caco-2 Permeability A-B dir.: Low
  Active efflux: Yes
Plasma stability Mouse
  Plasma stability Mouse: Low

## Nc1ccccc1NC(=O)c1ccc(OCc2cn(CCO)nn2)cc1 [HO56]
[3]
  Stability SGD, SIF w. Enzymes: High
[4]
  Dose Esc. Tox mouse PO: >200 mg/kg
  Dose Esc. Tox mouse iv: 10 mg/kg
In vivo
  MTD at 7 days: > 50 mg/kg
[5]
  C_max IV - rat: 26 µM
  V-d IV - rat: 3.07 L/kg
  bioavailability: 16%
[5]; PO
  C_max PO - rat: 1.2 µM
[5]; [8]
  half-life: 132 min
[5]; [9]
  half-life: 94 min
Plasma stability Rat
  Plasma stability Rat: High
Caco-2 cells
  Caco-2 Permeability A-B dir.: Low
  Active efflux: Yes
Plasma stability Mouse
  Plasma stability Mouse: High
